Common to all, as to type: cell-based
Series [1] relates to Human Rhinovirus 14 (HRV14) in H1-HeLa cells. As to the kind of experiment: H1-HeLa HRV-CTG EC50, HRV14 (Example Z). Particulars: Rhinovirus B, HRV14, 96 h, MOI 1.0, 4 days, Celltiter-Glo, read-out: HRV14 HELA EC50 (nM) (per Ex. Z). The text has this:
(§1) H1-Hela cell line (ATCC, Manassas, VA, Cat #CRL-1958) was maintained in Dulbecco's […] (DMEM) (Corning, New York, NY, Cat #15-018CM) supplemented with 10% fetal bovine serum (FBS) (Hyclone, Logan, UT, Cat #SH30071-03), and 1× Penicillin-Streptomycin-L-Glutamine (Coming, New York, NY, Cat #30-009-C1). Cells were passaged 2 times per week to maintain sub-confluent densities and were used for experiments at passage 5-30. The Human Rhinovirus 1B (HRV1B) (ATCC, Manassas, VA, Cat #VR-1645), Human Rhinovirus 14 (HRV14) (ATCC, Manassas, VA, Cat #VR-284), and Human Rhinovirus 16 (HRV16) (ATCC, Manassas, VA, Cat #BR-283) was obtained through ATCC. Viral infection was monitored by determining viability of H1-HeLa cells as described below.
(§2) Test molecules are prepared in 100% DMSO in 384-well polypropylene plates (Greiner, Monroe, NC, Cat #784201) with 8 compounds per plate in grouped replicates of 4 at 10 serially diluted concentrations (1:3). The serially diluted compounds were transferred to low dead volume Echo plates (Labcyte, Sunnyvale, CA, Cat #LP-0200).
(§3) The test compounds were spotted to 384-well assay plates (Greiner, Monroe, NC, Cat #781091) at 200 nL per well using an Echo acoustic dispenser (Labcyte, Sunnyvale, CA). H1-HeLa cells were harvested and suspended in DMEM (supplemented with 2% FBS and 1× Penicillin-Streptomycin-L-Glutamine) and seeded to the pre-spotted assay plates at 5,000 cells per well in 30 μL. HRV1B, HRV14, and HRV16 was diluted in DMEM (supplemented with 2% FBS and 1× Penicillin-Streptomycin-L-Glutamine) at 97.1 million Infectious Units (IU) per mL, 151 million IU per mL and 221 million IU per mL respectively. 10 μL of virus per well was added to the assay plates containing cells and compounds, for an MOI of 0.5, 1.0, and 0.25 respectively. The assay plates were incubated for 4 days at 37° C. and 5% CO2. At the end of incubation, Celltiter-Glo (Promega, Madison, WI, Cat #G7573) was prepared. The assay plates and Celltiter-Glo reagent were equilibrated to room temperature for at least 15 minutes. 40 μL per well of Celltiter-Glo reagent was added and the plates were incubated at room temperature for 15 minutes before reading the luminescence signal on an EnVision multimode plate reader (Perkin Elmer, Waltham, MA). Rupintrivir was used as positive control and DMSO was used as negative control. Values were normalized to the positive and negative controls (as 0% and 100% replication, respectively) and data was fitted using non-linear regression analysis by Gilead's dose response tool. The EC50 value for each compound was defined as the concentration reducing viral replication by 50%.

The nature of series [2]: RSV HEP2-CC50-384-V2 (per Ex. V). Conditions: human.
The test system of series [3] is Human Rhinovirus 16 (HRV16) in H1-HeLa cells. Kind of series: H1-HeLa HRV-CTG EC50, HRV16 (Example Z). Particulars: Rhinovirus A, HRV16, 96 h, MOI 0.25, 4 days, Celltiter-Glo, read-out: HRV 16 HELA EC50 (nM) (per Ex. Z).
Text: as §1, §2, §3

In series [4] the test system is Human Rhinovirus 1B (HRV1B) in H1-HeLa cells. As to the kind of experiment: H1-HeLa HRV-CTG EC50, HRV1B (Example Z). Conditions: Rhinovirus A, 96 h, MOI 0.5, 4 days, Celltiter-Glo, read-out: HRV 1B HELA EC50 (nM) (per Ex. Z).
Text: as §1, §2, §3

Series [5] can be described thus: RSV NHBE CC50 384 V2 (per Ex. U). Conditions: human.

Structures are written as SMILES.

As to `CCCCCCCCCCCCCCCCCCOC[C@H](COP(=O)(O)OC[C@@]1(C#N)O[C@@H](c2ccc3c(N)ncnn23)[C@H](O)[C@@H]1O)OCc1cc(F)cc(C#N)c1` [Compound 1, ((2R,3S,4R,5S)-5-(4-aminopyrrolo[2,1-f][1,2,4]triazin-7-yl)-2-cyano-3,4-dihydroxytetrahydrofuran-2-yl)methyl ((R)-2-((3-cyano-5-fluorobenzyl)oxy)-3-(octadecyloxy)propyl) hydrogen phosphate], the EC50 in series [1] came to 8 nM; in series [3], 8 nM; in series [4], 4 nM. The CC50 at 3 days in series [2] was greater than 31200 nM; in series [5], 2400 nM.
With `CCCCCCCCCCCCCCCCCCOC[C@H](COP(=O)(O)OC[C@@]1(C#N)O[C@@H](c2ccc3c(N)ncnn23)[C@H](O)[C@@H]1O)OCc1ccc(C#N)c(Cl)c1` [Compound 7, ((2R,3S,4R,5S)-5-(4-aminopyrrolo[2,1-f][1,2,4]triazin-7-yl)-2-cyano-3,4-dihydroxytetrahydrofuran-2-yl)methyl ((R)-2-((3-chloro-4-cyanobenzyl)oxy)-3-(octadecyloxy)propyl) hydrogen phosphate], the EC50 in series [1] is 50 nM; in series [3] it was 40 nM; in series [4], 38 nM. Besides, the 50% cytotoxic concentration (CC50) at 3 days in series [2] is greater than 49900 nM; in series [5], 5960 nM.
Consider `CCCCCCCCCCCCCCCCCCOC[C@H](COP(=O)(O)OC[C@@]1(C#N)O[C@@H](c2ccc3c(N)ncnn23)[C@H](O)[C@@H]1O)OCc1ccc(C#N)c(-n2cncn2)c1` [Compound 16, ((2R,3S,4R,5S)-5-(4-aminopyrrolo[2,1-f][1,2,4]triazin-7-yl)-2-cyano-3,4-dihydroxytetrahydrofuran-2-yl)methyl ((R)-2-((4-cyano-3-(1H-1,2,4-triazol-1-yl)benzyl)oxy)-3-(octadecyloxy)propyl) hydrogen phosphate], for which the EC50 was 11 nM in series [1], 10 nM in series [3] and 5 nM in series [4]. Moreover, the half-maximal cytotoxic concentration (CC50) at 3 days in series [2] is greater than 41500 nM; in series [5], 4610 nM.
In series [2], `CCCCCCCCCCCCCCCCCCOC[C@H](COP(=O)(O)OC[C@@]1(C#N)O[C@@H](c2ccc3c(N)ncnn23)[C@H](O)[C@@H]1O)OCc1ccc(C#N)nc1` [Compound 19, ((2R,3S,4R,5S)-5-(4-aminopyrrolo[2,1-f][1,2,4]triazin-7-yl)-2-cyano-3,4-dihydroxytetrahydrofuran-2-yl)methyl ((R)-2-((6-cyanopyridin-3-yl)methoxy)-3-(octadecyloxy)propyl) hydrogen phosphate] gave a CC50 at 3 days of 46400 nM.
With `CCCCCCCCCCCCCCCCCCOC[C@H](COP(=O)(O)OC[C@@]1(C#N)O[C@@H](c2ccc3c(N)ncnn23)[C@H](O)[C@@H]1O)Oc1cccc(C#N)n1` [Compound 21, ((2R,3S,4R,5S)-5-(4-aminopyrrolo[2,1-f][1,2,4]triazin-7-yl)-2-cyano-3,4-dihydroxytetrahydrofuran-2-yl)methyl ((R)-2-((6-cyanopyridin-2-yl)oxy)-3-(octadecyloxy)propyl) hydrogen phosphate], the half-maximal effective concentration (EC50) was 60 nM in series [1], 50 nM in series [3] and 35 nM in series [4]. Moreover, the CC50 at 3 days in series [2] worked out at 39700 nM; in series [5], 3350 nM.
Turning to `CCCCCCCCCCCCCCCCCCOC[C@H](COP(=O)(O)OC[C@@]1(C#N)O[C@@H](c2ccc3c(N)ncnn23)[C@H](O)[C@@H]1O)Oc1ccc(C#N)c(OC(C)C)c1` [Compound 23, ((2R,3S,4R,5S)-5-(4-aminopyrrolo[2,1-f][1,2,4]triazin-7-yl)-2-cyano-3,4-dihydroxytetrahydrofuran-2-yl)methyl ((R)-2-(4-cyano-3-isopropoxyphenoxy)-3-(octadecyloxy)propyl) hydrogen phosphate], the half-maximal effective concentration (EC50) turned out to be 9 nM in series [1], 7 nM in series [3] and 4 nM in series [4]. In addition, the figures for the CC50 at 3 days in series [2] and in series [5] were greater than 42000 nM and 5400 nM, respectively.
`CCCCCCCCCCCCCCCCCCC[C@H](COP(=O)(O)OC[C@@]1(C#N)O[C@@H](c2ccc3c(N)ncnn23)[C@H](O)[C@@H]1O)OCc1cc(F)cc(C#N)c1` [Compound 25, ((2R,3S,4R,5S)-5-(4-aminopyrrolo[2,1-f][1,2,4]triazin-7-yl)-2-cyano-3,4-dihydroxytetrahydrofuran-2-yl)methyl ((R)-2-((3-cyano-5-fluorobenzyl)oxy)henicosyl) hydrogen phosphate]: the EC50 in series [1] is 103 nM; in series [3], 99 nM; in series [4], 45 nM. Besides, the CC50 at 3 days in series [2] was greater than 50000 nM; in series [5], 31000 nM.
`CCCCCCCCCCCCCCCCC[C@H](COP(=O)(O)OC[C@@]1(C#N)O[C@@H](c2ccc3c(N)ncnn23)[C@H](O)[C@@H]1O)OCc1cc(Cl)cc(C#N)c1` [Compound 76, ((2R,3S,4R)-5-(4-aminopyrrolo[2,1-f][1,2,4]triazin-7-yl)-2-cyano-3,4-dihydroxytetrahydrofuran-2-yl)methyl ((R)-2-((3-chloro-5-cyanobenzyl)oxy)nonadecyl) hydrogen phosphate]: the CC50 at 3 days came out at 33700 nM in series [2] and 3550 nM in series [5].
Turning to `CCCCCCCCCCCCCCCCCC[C@H](COP(=O)(O)OC[C@@]1(C#N)O[C@@H](c2ccc3c(N)ncnn23)[C@H](O)[C@@H]1O)OCc1cc(Cl)cc(C#N)c1` [Compound 81, ((2R,3S,4R,5S)-5-(4-aminopyrrolo[2,1-f][1,2,4]triazin-7-yl)-2-cyano-3,4-dihydroxytetrahydrofuran-2-yl)methyl ((R)-2-((3-chloro-5-cyanobenzyl)oxy)icosyl) hydrogen phosphate], the half-maximal cytotoxic concentration (CC50) at 3 days in series [2] is 23000 nM; in series [5], 2480 nM.
As to `CCCCCCCCCCCCCCCCCCC[C@H](COP(=O)(O)OC[C@@]1(C#N)O[C@@H](c2ccc3c(N)ncnn23)[C@H](O)[C@@H]1O)OCc1cc(Cl)cc(C#N)c1` [Compound 82, ((2R,3S,4R,5S)-5-(4-aminopyrrolo[2,1-f][1,2,4]triazin-7-yl)-2-cyano-3,4-dihydroxytetrahydrofuran-2-yl)methyl ((R)-2-((3-chloro-5-cyanobenzyl)oxy)henicosyl) hydrogen phosphate], the 50% cytotoxic concentration (CC50) at 3 days in series [2] turned out to be 29000 nM; in series [5], 6120 nM.
As to `CCCCCCCCCCCCCCCCCC[C@H](COP(=O)(O)OC[C@@]1(C#N)O[C@@H](c2ccc3c(N)ncnn23)[C@H](O)[C@@H]1O)OCc1cc(F)cc(C#N)c1` [Compound 84, ((2R,3S,4R,5S)-5-(4-aminopyrrolo[2,1-f][1,2,4]triazin-7-yl)-2-cyano-3,4-dihydroxytetrahydrofuran-2-yl)methyl ((R)-2-((3-cyano-5-fluorobenzyl)oxy)icosyl) hydrogen phosphate], the values for the half-maximal cytotoxic concentration (CC50) at 3 days in series [2] and in series [5] were greater than 50000 nM and 24500 nM, respectively.
With `CCCCCCCCCCCCCCCCOC[C@@H](COP(=O)(O)OC[C@@]1(C#N)O[C@@H](c2ccc3c(N)ncnn23)[C@H](O)[C@@H]1O)OCc1cc(F)cc(C#N)c1` [Compound 88, ((2R,3S,4R,5S)-5-(4-aminopyrrolo[2,1-f][1,2,4]triazin-7-yl)-2-cyano-3,4-dihydroxytetrahydrofuran-2-yl)methyl ((S)-2-((3-cyano-5-fluorobenzyl)oxy)-3-(hexadecyloxy)propyl) hydrogen phosphate], the CC50 at 3 days is 36600 nM in series [2] and 7530 nM in series [5].

These data come from US20250034182A1, “PHOSPHOLIPID COMPOUNDS AND METHODS OF MAKING AND USING THE SAME” (priority 2021, published 2025).
